Measurements from PubChem BioAssay AID248 (DTP/NCI, 2004).
Where “and” joins values, the source holds several entries; their conditions need not be identical. Equal values may be shown once. Inconclusive results and toxic doses are left out. Cut-off read from the data, not from the text of the source: active = T/C of 150% or more; inactive = T/C below 125%.

Tested on: L1210 leukemia ip in BDF1 mice, survival T/C
Assay: NCI In Vivo Anticancer Drug Screen. Data for tumor model L1210 Leukemia (intraperitoneal) in B6D2F1 (BDF1) mice
Conditions: endpoint: mean survival time, higher = longer survival
Procedure, shortened: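 Value reflects the ratio of survival in compound-treated mice to survival in vehicle-treated controls, with both groups carrying the same transplanted tumor.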

[1] = dose: 100.0 mg/kg/injection, schedule: Q01DX001 (ip), vehicle: saline
[2] = dose: 100.0 mg/kg/injection, schedule: Q01DX001 (ip), vehicle: carboxymethylcellulose (CMC)
[3] = dose: 200.0 mg/kg/injection, schedule: Q01DX001 (ip), vehicle: carboxymethylcellulose (CMC)
[4] = dose: 400.0 mg/kg/injection, schedule: Q01DX001 (ip), vehicle: carboxymethylcellulose (CMC)
[5] = dose: 200.0 mg/kg/injection, schedule: Q01DX001 (ip), vehicle: saline
[6] = dose: 100.0 mg/kg/injection, schedule: Q01DX009 (ip), vehicle: saline
[7] = dose: 100.0 mg/kg/injection, schedule: Q04DX003 (ip), vehicle: saline
[8] = dose: 200.0 mg/kg/injection, schedule: Q01DX009 (ip), vehicle: saline
[9] = dose: 200.0 mg/kg/injection, schedule: Q04DX003 (ip), vehicle: saline
[10] = dose: 400.0 mg/kg/injection, schedule: Q01DX009 (ip), vehicle: saline
[11] = dose: 400.0 mg/kg/injection, schedule: Q04DX003 (ip), vehicle: saline
[12] = dose: 25.0 mg/kg/injection, schedule: Q04DX002 (ip), vehicle: Klucel (hydroxypropylcellulose) (HPC)
[13] = dose: 50.0 mg/kg/injection, schedule: Q04DX002 (ip), vehicle: Klucel (hydroxypropylcellulose) (HPC)
[14] = dose: 100.0 mg/kg/injection, schedule: Q04DX002 (ip), vehicle: Klucel (hydroxypropylcellulose) (HPC)
[15] = dose: 100.0 mg/kg/injection, schedule: Q01DX009 (ip), vehicle: saline with Tween-80
[16] = dose: 200.0 mg/kg/injection, schedule: Q01DX009 (ip), vehicle: saline with Tween-80
[17] = dose: 400.0 mg/kg/injection, schedule: Q01DX009 (ip), vehicle: saline with Tween-80
[18] = dose: 100.0 mg/kg/injection, schedule: Q04DX003 (ip), vehicle: saline with Tween-80
[19] = dose: 200.0 mg/kg/injection, schedule: Q04DX003 (ip), vehicle: saline with Tween-80
[20] = dose: 400.0 mg/kg/injection, schedule: Q04DX003 (ip), vehicle: saline with Tween-80
[21] = dose: 100.0 mg/kg/injection, schedule: Q04DX003 (ip), vehicle: other
[22] = dose: 200.0 mg/kg/injection, schedule: Q04DX003 (ip), vehicle: other
[23] = dose: 400.0 mg/kg/injection, schedule: Q04DX003 (ip), vehicle: other

Measured: T/C

CCOC1CCC2C(CCC(/C=C/c3ccc(O)c4ncccc34)N2C)C1 (stereo unspecified)
inactive: dose: 21.0 mg/kg/injection, schedule: Q01DX015 (ip), vehicle: saline 113 % of control | dose: 36.0 mg/kg/injection, schedule: Q01DX015 (ip), vehicle: saline 111 % of control | dose: 88.8 mg/kg/injection, schedule: Q01DX001 (ip), vehicle: saline 103 % of control and 116 % of control | [1] 115 % of control | dose: 100.0 mg/kg/injection, schedule: Q01DX015 (ip), vehicle: saline 93 % of control | dose: 133.4 mg/kg/injection, schedule: Q01DX001 (ip), vehicle: saline 108 % of control and 116 % of control and 121 % of control | dose: 300.0 mg/kg/injection, schedule: Q01DX001 (ip), vehicle: saline 116 % of control and 121 % of control

Cc1cccc(CSc2nc(N)nc3ncn(C4CC(O)C(CO)O4)c23)n1 (stereo unspecified)
inactive: dose: 100.0 mg/kg/injection, schedule: Q01DX005 (ip), vehicle: saline 101 % of control | dose: 200.0 mg/kg/injection, schedule: Q01DX005 (ip), vehicle: saline 103 % of control

Clc1ccc(/C=N\Nc2ccccc2)c(Cl)c1
inactive: dose: 100.0 mg/kg/injection, schedule: Q01DX001 (ip), vehicle: Klucel (hydroxypropylcellulose) (HPC) 103 % of control | dose: 200.0 mg/kg/injection, schedule: Q01DX001 (ip), vehicle: Klucel (hydroxypropylcellulose) (HPC) 101 % of control | dose: 400.0 mg/kg/injection, schedule: Q01DX001 (ip), vehicle: Klucel (hydroxypropylcellulose) (HPC) 109 % of control

S=C(N/N=C\c1ccc(Cl)cc1Cl)Nc1ccc2cn[nH]c2c1
inactive: dose: 50.0 mg/kg/injection, schedule: Q01DX001 (ip), vehicle: carboxymethylcellulose (CMC) 102 % of control | [2] 98 % of control | [3] 86 % of control | [4] 91 % of control

C=C1c2c(Cl)cccc2C(C)(CC)c2cccc(Cl)c21
inactive: dose: 75.0 mg/kg/injection, schedule: Q01DX001 (ip), vehicle: Klucel (hydroxypropylcellulose) (HPC) 96 % of control | dose: 75.0 mg/kg/injection, schedule: Q01DX009 (ip), vehicle: Klucel (hydroxypropylcellulose) (HPC) 94 % of control | dose: 150.0 mg/kg/injection, schedule: Q01DX001 (ip), vehicle: Klucel (hydroxypropylcellulose) (HPC) 98 % of control | dose: 150.0 mg/kg/injection, schedule: Q01DX009 (ip), vehicle: Klucel (hydroxypropylcellulose) (HPC) 96 % of control | dose: 300.0 mg/kg/injection, schedule: Q01DX001 (ip), vehicle: Klucel (hydroxypropylcellulose) (HPC) 95 % of control | dose: 300.0 mg/kg/injection, schedule: Q01DX009 (ip), vehicle: Klucel (hydroxypropylcellulose) (HPC) 99 % of control

CC(CO)(CO)N=Cc1cc(I)cc(I)c1O
inactive: [2] 93 % of control | [3] 98 % of control | [4] 95 % of control

C[N+](C)(C)/N=C1\CC2CCC1C2 (stereo unspecified)
inactive: [1] 98 % of control | [5] 101 % of control

Cc1cc([N+](=O)[O-])c2nnnn2c1
inactive: dose: 100.0 mg/kg/injection, schedule: Q01DX001 (ip), vehicle: other 108 % of control | dose: 200.0 mg/kg/injection, schedule: Q01DX001 (ip), vehicle: other 90 % of control

NNC(=O)CCCCCC(=O)NN
inactive: [6] 93 % of control | [7] 94 % of control | [8] 95 % of control | [9] 96 % of control | [10] 106 % of control | [11] 102 % of control

O=[N+]([O-])c1ccc(C2CCCCC2)cc1
inactive: [12] 109 % of control | [13] 109 % of control | [14] 102 % of control

CCN(C)CCN(C)CC
inactive: [6] 102 % of control | [7] 97 % of control | [8] 104 % of control | [9] 99 % of control | [10] 106 % of control | [11] 99 % of control

CCCCOP(=O)(Nc1ccccc1)OCCCC
inactive: dose: 100.0 mg/kg/injection, schedule: Q04DX002 (sc), vehicle: olive oil, sesame oil, peanut oil 103 % of control | dose: 200.0 mg/kg/injection, schedule: Q04DX002 (sc), vehicle: olive oil, sesame oil, peanut oil 103 % of control | dose: 400.0 mg/kg/injection, schedule: Q04DX002 (sc), vehicle: olive oil, sesame oil, peanut oil 90 % of control

Cc1cc(C)c(CSC(=N)N)c(C)c1
inactive: [12] 88 % of control | [13] 92 % of control | [14] 100 % of control and 89 % of control

CCC(=O)C(CCN(C)C)(c1ccccc1)c1ccccc1
inactive: [1] 110 % of control

CCOC(=O)NNC(=O)OCC
inactive: dose: 12.5 mg/kg/injection, schedule: Q01DX009 (ip), vehicle: saline with Tween-80 100 % of control | dose: 25.0 mg/kg/injection, schedule: Q01DX009 (ip), vehicle: saline with Tween-80 97 % of control | dose: 25.0 mg/kg/injection, schedule: Q04DX003 (ip), vehicle: Klucel (hydroxypropylcellulose) (HPC) 97 % of control | dose: 50.0 mg/kg/injection, schedule: Q01DX009 (ip), vehicle: saline with Tween-80 96 % of control and 86 % of control | dose: 50.0 mg/kg/injection, schedule: Q04DX003 (ip), vehicle: Klucel (hydroxypropylcellulose) (HPC) 98 % of control | dose: 75.0 mg/kg/injection, schedule: Q01DX001 (ip), vehicle: acetone 97 % of control | [15] 92 % of control | dose: 100.0 mg/kg/injection, schedule: Q04DX003 (ip), vehicle: Klucel (hydroxypropylcellulose) (HPC) 91 % of control | dose: 150.0 mg/kg/injection, schedule: Q01DX001 (ip), vehicle: acetone 108 % of control

O=C(Nc1ccc(Cl)cc1C(F)(F)F)OCCOc1ccccc1Cl
inactive: [15] 91 % of control | [16] 95 % of control | [17] 93 % of control

CCC(CO)NC(=O)/C=C/c1ccc(Cl)cc1 (stereo unspecified)
inactive: dose: 100.0 mg/kg/injection, schedule: Q01DX001 (ip), vehicle: saline with Tween-80 101 % of control | [18] 110 % of control | dose: 200.0 mg/kg/injection, schedule: Q01DX001 (ip), vehicle: saline with Tween-80 100 % of control | [19] 108 % of control | dose: 400.0 mg/kg/injection, schedule: Q01DX001 (ip), vehicle: saline with Tween-80 92 % of control | [20] 98 % of control

O=C(COc1cccc(Cl)c1)Nc1ccccc1S(=O)(=O)F
inactive: [21] 89 % of control | [22] 87 % of control | [23] 98 % of control

CCCCCCP(=O)(O)O
inactive: [15] 88 % of control

COC(=O)C(NC(=O)c1ccccc1)C(C)(C)SCc1ccccc1 (stereo unspecified)
inactive: [21] 92 % of control | [22] 96 % of control | [23] 92 % of control

COC(=O)c1c(Cl)c(Cl)c(C(=O)OC)c(Cl)c1Cl
inactive: [15] 91 % of control | [18] 90 % of control | [16] 92 % of control | [19] 90 % of control | [17] 92 % of control | [20] 95 % of control

O=c1cc(/C=N\Nc2ccccc2)[nH]c(=O)[nH]1
inactive: dose: 50.0 mg/kg/injection, schedule: Q01DX001 (ip), vehicle: saline 93 % of control | [1] 96 % of control | [5] 93 % of control | dose: 400.0 mg/kg/injection, schedule: Q01DX001 (ip), vehicle: saline 96 % of control

CCOP(=S)(S)OCC
inactive: [7] 97 % of control and 98 % of control | [9] 95 % of control and 93 % of control | [11] 98 % of control

Cn1c(=O)c2[nH]cnc2n(C)c1=O (tested in a mixture with another compound)
inactive: [18] 97 % of control | [19] 96 % of control

N=c1ccn(C(=O)C2=Cc3ccccc3OC2)cc1
inactive: dose: 5.0 mg/kg/injection, schedule: Q01DX009 (ip), vehicle: saline with Tween-80 101 % of control | dose: 10.0 mg/kg/injection, schedule: Q01DX009 (ip), vehicle: saline with Tween-80 90 % of control | dose: 10.0 mg/kg/injection, schedule: Q04DX003 (ip), vehicle: saline with Tween-80 100 % of control | dose: 20.0 mg/kg/injection, schedule: Q01DX009 (ip), vehicle: saline with Tween-80 96 % of control | dose: 20.0 mg/kg/injection, schedule: Q04DX003 (ip), vehicle: saline with Tween-80 98 % of control
